Assay results published in US20080286339A1, “METHODS AND DEVICES FOR THE SUSTAINED RELEASE OF MULTIPLE DRUGS” (priority 2003, published 2008).
Like-named read-outs stand apart in the source and are kept apart here.

Columns and labels:
[1] = type: in vivo; details: for Duration of release from the ring: delayed release ring
Experimental: The rate of hydration of the intravaginal device depends on many factors, including the rate of water penetration into the polymer. The rate of water penetration can be modulated by the osmotic pressure within the polymer. The osmotic pressure can be modulated by adding salt (NaCl, KCl, etc) to the formulation of the drug.
Estradiol and GnRH can be formulated as described herein. Yet, additional salt is added (300 mmol).

[2] = estradiol administered at 100 μg/day; cited from earlier work
[3] = endogenous, normal menstrual cycle, cited from earlier work; for Tmax: phase of cycle
[4] = Expected characteristics of Ring A / Ring B formulations (Table II); type: in vivo; details: 21 days of release
Description: In an alternate embodiment of this aspect of the invention, the two formulations described above (the LHRH/estrogenic steroid formulation and LHRH/estrogenic/progestational steroid formulation) are combined in one drug delivery device, which is designed to remain in the vagina of the female for the entire menstrual cycle. In this embodiment, the drug delivery device comprises at least one cylindrical unitary segment per hormonal formulation, or, alternatively, at least one cylindrical unitary segment per active ingredient (i.e., LHRH, sex steroid, or sex steroid modulator). The choice of polymeric material and the ratio of polymeric material to LHRH/sex steroid/sex steroid modulator are preselected for each segment to provide the appropriate release kinetics for the individual steroids and/or steroidal formulations. By selecting the polymeric material based on its release properties and adjusting the ratio of polymeric material to drug, the method of the present invention provides the pre-set timed delivery of LHRH, estrogenic steroid, and progestational steroid at the appropriate phase of the menstrual cycle to achieve the desired contraceptive effect. For example, this “combined” device would release LHRH and/or its agonists or antagonists continuously for 30 days in combination with an estrogenic compound.

[5] = In vitro release from double-sided EVA disc (Example 6); type: physicochemical; details: 70:30 PBS:EtOH pH 6, 37° C.
Experimental: Also, the EVA/drug mixtures were combined to form a double-sided disc, comprising estradiol on one side and progesterone on the other. After drying, the discs were evaluated for their release kinetics. […] At the indicated time points, 100% of the media was collected for measurement and 100 ml of release media was replaced. The media was measured by an Agilent 1100 Series HPLC (Agilent). […] Results were calculated based on the area under the curve compared to a 5 point calibration curve and depicted in FIG. 7 as the cumulative percent released.

[6] = Effect of cellulosics (Methocel) on in vitro release from EVA (Example 5); type: physicochemical; details: EVA with 5% or 25% Methocel, PBS pH 6.10:ethanol 70:30, 37° C.
Description: Also, varying amounts of a commercially available cellulosic, Methocel® (Dow Chemicals, Co., Midland, Mich.) were incorporated into the mixtures to evaluate the effect of cellulosics on release kinetics. […] The solutions were slowly emulsified into a methylene chloride solution containing EVA. The resulting emulsions were solvent-casted into a mold, which was then cooled on dry ice. Following sublimation, the […] were cut into 1 cm×1 cm samples, and placed in scintillation vials, to which 0.1 M phosphate buffered saline (pH 6.10) and ethanol were added in a 70:30 ratio. The vials were placed in a 37° C. incubator on a shaker rotating at 100 RPM. The buffer solution was replaced at predetermined time points. […] Next, the release kinetics were determined by plotting the cumulative release amounts as a function of time.

[7] = type: physicochemical; details: for In vitro release kinetics: EVA ring, 70:30 PBS:EtOH pH 6, 37° C., 14 to 21 day period
Experimental: At the indicated time points media was collected and measured by HPLC on an Agilent 1100 Series HPLC (Agilent, Forest City, Calif.). […] Results were calculated based on the area under the curve compared to a 5 point calibration curve. Results were expressed as the cumulative release in μg released over the course of the experiment.

[8] = tested on: endogenous luteinizing hormone (LH); assay: Intravaginal administration of GnRH/hydrogel to Rhesus monkeys, serum endogenous LH (Example 7); type: in vivo; details: 10 mg GnRH in 2 g hydrogel, 48 hours

Compound: CCNC(=O)[C@@H]1CCCN1C(=O)[C@H](CCCNC(=N)N)NC(=O)[C@H](CC(C)C)NC(=O)[C@@H](Cc1c[nH]c2ccccc12)NC(=O)[C@H](Cc1ccc(O)cc1)NC(=O)[C@H](CO)NC(=O)[C@H](Cc1c[nH]c2ccccc12)NC(=O)[C@H](Cc1c[nH]cn1)NC(=O)[C@@H]1CCC(=O)N1 [D-Trp6-Pro9-Net-GnRH]
- Duration of release from the ring [1]: 28 days

Compound: C[C@]12CC[C@@H]3c4ccc(O)cc4CC[C@H]3[C@@H]1CC[C@@H]2O [Estradiol, estradiol]
- Serum level produced [2]: approximately 100 pg/ml
- Cmax [3]: 0.5 ng/mL
- Steady State Serum Concentration [3]: 50 to 500 pg/mL
- Tmax [3]: Midcycle
- Drug Circulation Level ([4]; Ring A): 100 pg/mL
- Drug Circulation Level ([4]; Ring B): 100 pg/mL

Compound: CC(=O)[C@H]1CC[C@H]2[C@@H]3CCC4=CC(=O)CC[C@]4(C)[C@H]3CC[C@]12C [Progesterone, progesterone]
- Duration of release from the ring [1]: 4 days
- Time after which release begins ([1]; segment without salt): 14 days
- In vitro release kinetics [5]: independent bi-phasic release kinetics
- In vitro release kinetics with addition of Methocel [6]: pseudo zero order release kinetics
- In vitro release kinetics [7]: stable zero order release kinetics
- Cmax [3]: 35 ng/mL
- Steady State Serum Concentration [3]: 2000 to 6000 pg/mL
- T1/2 [3]: 12 h
- Tmax [3]: Midluteal
- Drug Circulation Level ([4]; Ring B): 6000 pg/mL

Compound: p-Glu-His-Trp-Ser-Tyr-Gly-Leu-Arg-Pro-Gly-NH2 [GnRH]
- Serum level in the circulation that the delivery rates are capable of producing [7]: 3 to 6 ng/mL
- In vitro release kinetics [7]: stable zero order release kinetics
- Time for which the ring sustains adequate flux rates ([7]; not told): at least 21 days
- Effect on endogenous LH levels [8]: produces elevated levels of endogenous LH
